Test results reported in PubChem BioAssay (NCI).
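Assay format: 96-well plates, 48-hour exposure. GI50: concentration for 50% inhibition of growth. TGI is the concentration that stops growth completely.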

Experiments:
Experiment in all cases: inhibition of tumour cell growth, NCI panel, 48 h; in the data active means GI50 below about 0.43 µM; inactive means the rest
CCRF-CEM leukemia = tested on: CCRF-CEM leukemia
KM12 colon = tested on: KM12 colon
RXF 393 renal = tested on: RXF 393 renal
EKVX NSCLC = tested on: EKVX NSCLC
BT-549 breast = tested on: BT-549 breast
HS 578T breast = tested on: HS 578T breast
RPMI-8226 leukemia = tested on: RPMI-8226 leukemia
DU-145 prostate = tested on: DU-145 prostate
HL-60(TB) leukemia = tested on: HL-60(TB) leukemia
COLO 205 colon = tested on: COLO 205 colon
SF-539 CNS = tested on: SF-539 CNS
M14 melanoma = tested on: M14 melanoma
SF-268 CNS = tested on: SF-268 CNS
SN12C renal = tested on: SN12C renal
UO-31 renal = tested on: UO-31 renal
HT29 colon = tested on: HT29 colon
NCI-H226 lung = tested on: NCI-H226 lung
MDA-MB-231 breast = tested on: MDA-MB-231 breast
MDA-MB-435 = tested on: MDA-MB-435
ACHN renal = tested on: ACHN renal
MOLT-4 leukemia = tested on: MOLT-4 leukemia
K-562 leukemia = tested on: K-562 leukemia
HCT-15 colon = tested on: HCT-15 colon
SF-295 CNS = tested on: SF-295 CNS
U251 CNS = tested on: U251 CNS
SNB-19 CNS = tested on: SNB-19 CNS
OVCAR-3 ovarian = tested on: OVCAR-3 ovarian
MCF7 breast = tested on: MCF7 breast
HOP-92 NSCLC = tested on: HOP-92 NSCLC
786-0 renal = tested on: 786-0 renal
NCI-H460 lung = tested on: NCI-H460 lung
T-47D breast = tested on: T-47D breast
SNB-75 CNS = tested on: SNB-75 CNS
TK-10 renal = tested on: TK-10 renal
OVCAR-4 ovarian = tested on: OVCAR-4 ovarian
SK-MEL-2 melanoma = tested on: SK-MEL-2 melanoma
LOX IMVI melanoma = tested on: LOX IMVI melanoma
HOP-62 NSCLC = tested on: HOP-62 NSCLC
HCT-116 colon = tested on: HCT-116 colon
UACC-257 melanoma = tested on: UACC-257 melanoma
NCI/ADR-RES ovarian = tested on: NCI/ADR-RES ovarian
IGROV1 ovarian = tested on: IGROV1 ovarian
SK-MEL-28 melanoma = tested on: SK-MEL-28 melanoma
A549 NSCLC = tested on: A549 NSCLC
OVCAR-8 ovarian = tested on: OVCAR-8 ovarian
SR leukemia = tested on: SR leukemia
UACC-62 melanoma = tested on: UACC-62 melanoma
PC-3 prostate = tested on: PC-3 prostate
SW-620 colon = tested on: SW-620 colon
NCI-H23 lung = tested on: NCI-H23 lung
MALME-3M melanoma = tested on: MALME-3M melanoma
OVCAR-5 ovarian = tested on: OVCAR-5 ovarian
NCI-H522 lung = tested on: NCI-H522 lung
CAKI-1 renal = tested on: CAKI-1 renal
A498 renal = tested on: A498 renal
HCC-2998 colon = tested on: HCC-2998 colon
SK-MEL-5 melanoma = tested on: SK-MEL-5 melanoma
SK-OV-3 ovarian = tested on: SK-OV-3 ovarian

COc1ccc2c(c1)NC1=C(C(=O)OC1)C2c1cc(OC)c(OC)c(OC)c1 (configuration not stated)
40000 nM: TGI (SNB-75 CNS)
> 54500 nM: TGI (SF-295 CNS)
< 11.6 nM: TGI (SK-MEL-5 melanoma)
61800 nM: TGI (RXF 393 renal)
inactive: GI50 (EKVX NSCLC) 12000 nM | GI50 (T-47D breast) 25600 nM | GI50 (MALME-3M melanoma) 26000 nM
< 10 nM: TGI (BT-549 breast) | TGI (DU-145 prostate) | TGI (HL-60(TB) leukemia) | TGI (COLO 205 colon) | TGI (MDA-MB-231 breast) | TGI (OVCAR-3 ovarian) | TGI (NCI-H522 lung) | TGI (A498 renal)
< 16.4 nM: TGI (MDA-MB-435)
18600 nM: TGI (SF-539 CNS)
27.7 nM: TGI (NCI/ADR-RES ovarian)
> 77000 nM: TGI (NCI-H23 lung)
> 100000 nM: TGI (CCRF-CEM leukemia) | TGI (KM12 colon) | TGI (EKVX NSCLC) | TGI (HS 578T breast) | TGI (RPMI-8226 leukemia) | TGI (M14 melanoma) | TGI (SF-268 CNS) | TGI (SN12C renal) | TGI (UO-31 renal) | TGI (HT29 colon) | TGI (NCI-H226 lung) | TGI (ACHN renal) | TGI (MOLT-4 leukemia) | TGI (K-562 leukemia) | TGI (HCT-15 colon) | TGI (U251 CNS) | TGI (SNB-19 CNS) | TGI (MCF7 breast) | TGI (HOP-92 NSCLC) | TGI (786-0 renal) | TGI (NCI-H460 lung) | TGI (T-47D breast) | TGI (TK-10 renal) | TGI (OVCAR-4 ovarian) | TGI (SK-MEL-2 melanoma) | TGI (LOX IMVI melanoma) | TGI (HCT-116 colon) | TGI (UACC-257 melanoma) | TGI (IGROV1 ovarian) | TGI (SK-MEL-28 melanoma) | TGI (A549 NSCLC) | TGI (OVCAR-8 ovarian) | TGI (SR leukemia) | TGI (UACC-62 melanoma) | TGI (PC-3 prostate) | TGI (SW-620 colon) | TGI (MALME-3M melanoma) | TGI (OVCAR-5 ovarian) | TGI (CAKI-1 renal)
active: GI50 (CCRF-CEM leukemia) < 10 nM | GI50 (KM12 colon) < 10 nM | GI50 (RXF 393 renal) < 10 nM | GI50 (BT-549 breast) < 10 nM | GI50 (HS 578T breast) < 10 nM | GI50 (RPMI-8226 leukemia) < 10 nM | GI50 (DU-145 prostate) < 10 nM | GI50 (HL-60(TB) leukemia) < 10 nM | GI50 (COLO 205 colon) < 10 nM | GI50 (SF-539 CNS) < 10 nM | GI50 (M14 melanoma) < 10 nM | GI50 (SF-268 CNS) < 10 nM | GI50 (SN12C renal) < 10 nM | GI50 (HT29 colon) < 10 nM | GI50 (NCI-H226 lung) < 10 nM | GI50 (MDA-MB-231 breast) < 10 nM | GI50 (MDA-MB-435) < 10 nM | GI50 (ACHN renal) < 10 nM | GI50 (MOLT-4 leukemia) < 10 nM | GI50 (K-562 leukemia) < 10 nM | GI50 (HCT-15 colon) < 10 nM | GI50 (SF-295 CNS) < 10 nM | GI50 (U251 CNS) < 10 nM | GI50 (SNB-19 CNS) < 10 nM | GI50 (OVCAR-3 ovarian) < 10 nM | GI50 (MCF7 breast) < 10 nM | GI50 (HOP-92 NSCLC) < 11.2 nM | GI50 (786-0 renal) < 10 nM | GI50 (NCI-H460 lung) < 10 nM | GI50 (SNB-75 CNS) < 10 nM | GI50 (TK-10 renal) < 10 nM | GI50 (OVCAR-4 ovarian) < 37.5 nM | GI50 (SK-MEL-2 melanoma) < 10 nM | GI50 (LOX IMVI melanoma) < 10 nM | GI50 (HOP-62 NSCLC) < 10 nM | GI50 (HCT-116 colon) < 10 nM | GI50 (UACC-257 melanoma) < 10 nM | GI50 (NCI/ADR-RES ovarian) < 10 nM | GI50 (IGROV1 ovarian) < 10 nM | GI50 (A549 NSCLC) < 10 nM | GI50 (OVCAR-8 ovarian) < 10 nM | GI50 (SR leukemia) < 10 nM | GI50 (UACC-62 melanoma) < 10 nM | GI50 (PC-3 prostate) < 10 nM | GI50 (SW-620 colon) < 10 nM | GI50 (NCI-H23 lung) < 10 nM | GI50 (OVCAR-5 ovarian) < 10 nM | GI50 (NCI-H522 lung) < 10 nM | GI50 (CAKI-1 renal) < 12.7 nM | GI50 (A498 renal) < 10 nM | GI50 (HCC-2998 colon) < 10 nM | GI50 (SK-MEL-5 melanoma) < 10 nM | GI50 (SK-OV-3 ovarian) < 10 nM
42500 nM: TGI (HOP-62 NSCLC)
